Here are results for 19 molecules from patent publication US20260158009A1 (GENZYME CORPORATION, priority 2023, published 2026).

Molecules are shown by their SMILES.

The term IC50 denotes the point on the concentration scale where inhibition reaches its midpoint. A high value points to lower potency.

One test deals with U937 cells. As to the kind of experiment: Cellular assay in U937 cells: activity of RIPK1 inhibitors on TNFα/zVAD.fmk-induced cell death (necroptosis), CellTiter 96 AQueous (MTS) readout. The class given is cell-based. The following applies: Homo sapiens, U-937. From the text: Upon TNF-Receptor I ligation, Ser/Thr kinase RIPK1 is recruited to a transient receptor complex 1. Upon modification of RIPK1 which promotes activation of RIPK1, complex IIb can form, that involves recruitment of RIPK3 and MLKL (mixed lineage-kinase domain-like protein) which then translocates from the cytosol to the plasma membrane to execute cell death (Cai, Z. et al, Nat. Cell Biol. (2014) 16:55-65).
Cell death was quantified in 96 well plates by determination of the amount of live cell using a CellTiter 96 AQueous reagent (Promega), a calorimetric method to measure the number of live cells by reducing tetrazolium compound [3-(4,5-dimethylthiazol-2-yl)-5-(3-carboxymethoxyphenyl)-2-(4-sulfophenyl)-2H-tetrazolium, inner salt; MTS] into formazan. Absorbance of formazan was read at 490 nm. The inhibitory activity of the test compound was quantified in a concentration response curve (CRC) experiment.
Compounds were obtained as 10 mM stock solutions and were diluted 1 to 10 volumes with DMSO to yield a 1 mM solution. From this solution 2 μl were diluted with 998 μl growth medium. 100 μl of 2 μM compound solution was further diluted sequentially with a dilution factor of 2.5 by adding 150 μl growth medium. A total of 10 concentrations were tested ranging from 10 μM to 0.26 nM or from 1 μM to 0.07 nM.
U937 cells were cultured in RPMI1640 Glutamax and 10% heat inactivated FBS. 50 μl cell suspension containing 1×10^6 cells/ml supplemented with 50 μM zVAD.fmk (Benzyloxycarbonyl-Val-Ala-Asp (OMe) fluoromethylketone) and 100 ng/ml recombinant human TNF[…] were dispensed in each well of a 96-well plate. 50 μl of compound dilutions (described in Cellular assay in U937 cells) were added and the cell suspension incubated overnight (18 to 24 hrs) at 37° C., 5% CO2 in a humidified atmosphere (95% rH). High (no compound) and low control (no TNF[…], zVAD.fmk) were tested with 7 replicates; all compound concentrations were tested in duplicates on each experimental plate.
CellTiter 96 Aqueous reagent was mixed (100 μl PMS (phenazine methosulfate) solution/2 ml MTS (3-(4,5-[…])-5-(3-carboxymethoxyphenyl)-2-(4-sulfophenyl)-2H-tetrazolium, inner salt) solution) and 20 μl were added per well. After 4 hrs incubation at 37° C. (5% CO2 95% rH) optical density was measured at 490 nm on a microplate reader (Tecan Infinite M1000).
The % inhibition is expressed as percentage of the maximal inhibition value obtained in the absence of TNFα/zVAD.fmc.

Test [1] deals with T1, hRIPK1 (aa 1-375) fusion protein (Homo sapiens, UniProt Q13546).
T1 construct: hRIPK1 (aa 1-375) fusion protein
T1 sequence (Q13546 1-375): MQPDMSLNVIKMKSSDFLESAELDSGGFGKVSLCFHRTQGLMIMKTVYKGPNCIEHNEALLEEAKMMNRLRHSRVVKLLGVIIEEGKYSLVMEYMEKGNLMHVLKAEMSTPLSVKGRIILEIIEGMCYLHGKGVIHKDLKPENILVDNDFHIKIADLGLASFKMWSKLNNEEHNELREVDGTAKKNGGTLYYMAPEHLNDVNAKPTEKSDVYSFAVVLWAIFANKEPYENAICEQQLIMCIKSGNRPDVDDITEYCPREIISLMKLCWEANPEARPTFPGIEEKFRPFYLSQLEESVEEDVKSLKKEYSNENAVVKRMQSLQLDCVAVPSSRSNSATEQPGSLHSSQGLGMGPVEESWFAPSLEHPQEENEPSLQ
As to the kind of experiment: ADP-Glo kinase assay: catalytic activity of RIPK1 (autophosphorylation, conversion of ATP to ADP). It is filed as biochemical. On the procedure: The catalytic activity of RIPK1 was measured by monitoring the conversion of Adenosine triphosphate (ATP) to Adenosine diphosphate (ADP) due to autophosphorylation using an ADP-Glo kinase kit (Promega, catalog no. V9104).
In detail, 2 μl recombinantly produced hRIPK1 (aa 1-375) fusion protein (end concentration 3.6 μg/ml) and 2 μl compound (end concentration 33300-1.69 nM; DMSO end concentration 1%) were incubated for 30 minutes at room temperature and then 2 μl ATP (ADP Glo kit, end concentration 50 μM) were added. After another 240 minutes incubation at room temperature, 5 μl Promega ADP-Glo reagent I was added to quench the reaction and deplete unconsumed ATP. After an incubation period of 30 minutes, 10 μl Promega ADP-Glo detection reagent II was added resulting in conversion of ADP to ATP, which generates a light-reaction between luciferase and luciferin. Luminescence was quantified after 30 minutes with a Pherastar FS (BMG LABTECH, Ortenberg).
The adjustment was obtained by nonlinear regression using the Levenberg Marquardt algorithm.

Consider `Cc1nnc2ccc(CC3CCC(C(=O)N4OCC[C@H]4c4cnccn4)CC3)c(C)n12` (stereo partly drawn) [compound 358, [4-[(3,5-dimethyl-[1,2,4]triazolo[4,3-a]pyridin-6-yl)methyl]cyclohexyl]-[(3S)-3-pyrazin-2-yl-1,2-oxazolidin-2-yl]methanone], for which the IC50 in the test with U937 cells was determined as 481 nM; in test [1] it was 31 nM.
For the molecule `COc1cncc([C@@H]2CCON2C(=O)[C@H]2CC[C@H](Cc3ccc(C)c(C(N)=O)c3)CC2)n1` [compound 166, trans-5-[[4-[(3S)-3-(6-methoxypyrazin-2-yl)isoxazolidine-2-carbonyl]cyclohexyl]methyl]-2-methyl-benzamide], the IC50 in the test on U937 cells was found to be 50 nM; in test [1], 8 nM.
As to `N#Cc1cc(F)cc([C@@H]2CCON2C(=O)[C@H]2CC[C@H](Cn3c(=O)oc4ccccc43)CC2)c1` [compound 18, trans-3-fluoro-5-((S)-2-(4-((2-oxobenzo[d]oxazol-3(2H)-yl)methyl)cyclohexane-1-carbonyl)isoxazolidin-3-yl)benzonitrile], the results for the IC50 (with U937 cells; in test [1]) were 16 nM and 19 nM, respectively.
On to `N#Cc1cc(F)cc([C@@H]2CCON2C(=O)[C@H]2CC[C@H](Cn3cc4ccc(C#N)cc4n3)CC2)c1` [compound 30, trans-2-((4-((S)-3-(3-cyano-5-fluorophenyl)isoxazolidine-2-carbonyl)cyclohexyl)methyl)-2H-indazole-6-carbonitrile], for which the IC50 with U937 cells came out at 68 nM; in test [1], 39 nM.
For the molecule `Cn1ncc2ncc(C[C@H]3CC[C@H](C(=O)N4OCC[C@H]4c4cc(F)cc(C#N)c4)CC3)cc21` [compound 296, trans-3-fluoro-5-[(3S)-2-[4-[(1-methylpyrazolo[4,3-b]pyridin-6-yl)methyl]cyclohexanecarbonyl]isoxazolidin-3-yl]benzonitrile], the IC50 in the test with U937 cells amounted to 2 nM; in test [1], 5 nM.
For `Cc1nc2cc(C[C@H]3CC[C@H](C(=O)N4OCC[C@H]4c4cnccn4)CC3)ccn2n1` [compound 374, trans-[4-(2-Methyl-[1,2,4]triazolo[1,5-a]pyridin-7-ylmethyl)-cyclohexyl]-((S)-3-pyrazin-2-yl-isoxazolidin-2-yl)-methanone], in that order: 55 nM and 36 nM.
As for `N#Cc1ccc2c(cnn2C[C@H]2CC[C@H](C(=O)N3OCC[C@H]3c3cnccn3)CC2)c1` [compound 218, trans-1-[[4-[(3S)-3-pyrazin-2-ylisoxazolidine-2-carbonyl]cyclohexyl]methyl]indazole-5-carbonitrile], the values for the half-inhibitory concentration (IC50) (with U937 cells; in test [1]) were 13 nM and 20 nM, respectively.
For the molecule `Cc1ncc(C[C@H]2CC[C@H](C(=O)N3OCC[C@H]3c3cc(F)cc(F)c3)CC2)cc1C#N` [compound 267, trans-5-[[4-[(3S)-3-(3,5-difluorophenyl)isoxazolidine-2-carbonyl]cyclohexyl]methyl]-2-methyl-pyridine-3-carbonitrile], the half-inhibitory concentration (IC50) in the test with U937 cells came out at 2 nM; in test [1], 12 nM.
`Cc1ncc([C@@H]2CCON2C(=O)[C@H]2CC[C@H](Cc3cc(F)c4ncnn4c3)CC2)cc1F` [compound 392, trans-[(3S)-3-(5-fluoro-6-methylpyridin-3-yl)-1,2-oxazolidin-2-yl]-[4-[(8-fluoro-[1,2,4]triazolo[1,5-a]pyridin-6-yl)methyl]cyclohexyl]methanone]: the IC50 with U937 cells was 18 nM; in test [1], 32 nM.
On the same counts, the results for `COc1cncc([C@@H]2CCON2C(=O)[C@H]2CC[C@H](Cn3ncc4ccc(C#N)cc43)CC2)n1` [compound 190, trans-1-[[4-[(3S)-3-(6-methoxypyrazin-2-yl)isoxazolidine-2-carbonyl]cyclohexyl]methyl]indazole-6-carbonitrile] are 4 nM and 13 nM.
With `Cc1c(C#N)ncn1C[C@H]1CC[C@H](C(=O)N2OCC[C@H]2c2cc(F)cc(C#N)c2)CC1` [compound 90, trans-1-((4-((S)-3-(3-cyano-5-fluorophenyl)isoxazolidine-2-carbonyl)cyclohexyl)methyl)-5-methyl-1H-imidazole-4-carbonitrile], the IC50 turned out to be 147 nM with U937 cells and 75 nM in test [1].
Take `Cc1nc2c(C)cc(C[C@H]3CC[C@H](C(=O)N4OCC[C@H]4c4cncc(F)c4)CC3)cn2n1` [compound 331, trans-[4-[(2,8-dimethyl-[1,2,4]triazolo[1,5-a]pyridin-6-yl)methyl]cyclohexyl]-[(3S)-3-(5-fluoropyridin-3-yl)-1,2-oxazolidin-2-yl]methanone]: the IC50 came to 20 nM in the test on U937 cells and 15 nM in test [1].
Regarding `Cc1ccc(CC23CCC(C(=O)N4OCC[C@H]4c4cc(F)cc(F)c4)(CC2)CC3)cc1C(N)=O` [compound 273, 5-[[4-[(3S)-3-(3,5-difluorophenyl)-1,2-oxazolidine-2-carbonyl]-1-bicyclo[2.2.2]octanyl]methyl]-2-methylbenzamide], the IC50 is 9 nM in the test with U937 cells and 15 nM in test [1].
Turning to `Cc1ncc(C#N)cc1C[C@H]1CC[C@H](C(=O)N2OCC[C@H]2c2cc(F)cc(C#N)c2)CC1` [compound 277, trans-5-[[4-[(3S)-3-(3-cyano-5-fluoro-phenyl)isoxazolidine-2-carbonyl]cyclohexyl]methyl]-6-methyl-pyridine-3-carbonitrile], the IC50 in the test on U937 cells is 4 nM; in test [1], 19 nM.
As to `N#Cc1cc2c(cnn2C[C@H]2CC[C@H](C(=O)N3OCC[C@H]3c3cc(F)cc(F)c3)CC2)cc1F` [compound 86, trans-1-((4-((S)-3-(3,5-difluorophenyl)isoxazolidine-2-carbonyl)cyclohexyl)methyl)-5-fluoro-1H-indazole-6-carbonitrile], the values for the IC50 (in the test on U937 cells; in test [1]) were 1 nM and 14 nM, respectively.
Take `N#Cc1cc(F)cc([C@@H]2CCON2C(=O)[C@H]2CC[C@H](Cn3ncc4ncc(C(N)=O)cc43)CC2)c1` [compound 78, trans-1-((4-((S)-3-(3-cyano-5-fluorophenyl)isoxazolidine-2-carbonyl)cyclohexyl)methyl)-1H-pyrazolo[4,3-b]pyridine-6-carboxamide]: the IC50 was determined as 72 nM in the test with U937 cells and 40 nM in test [1].
`N#Cc1cc2c(cc1F)ncn2C[C@H]1CC[C@H](C(=O)N2OCC[C@H]2c2cnccn2)CC1` [compound 98, trans-5-fluoro-1-((4-((S)-3-(pyrazin-2-yl)isoxazolidine-2-carbonyl)cyclohexyl)methyl)-1H-benzo[d]imidazole-6-carbonitrile]: the figures for the concentration for half-maximal inhibition (IC50) (with U937 cells; in test [1]) were 84 nM and 32 nM, respectively.
In the case of `CNC(=O)c1cc(F)cc(C[C@H]2CC[C@H](C(=O)N3OCC[C@H]3c3cnccn3)CC2)c1` [compound 162, trans-3-fluoro-N-methyl-5-[[4-[(3S)-3-pyrazin-2-ylisoxazolidine-2-carbonyl]cyclohexyl]methyl]benzamide], the IC50 stood at 15 nM with U937 cells and 4 nM in test [1].
As to `N#Cc1cc(F)cc([C@@H]2CCON2C(=O)[C@H]2CC[C@H](Cn3ccc4cnccc43)CC2)c1` [compound 15, trans-3-((S)-2-(4-((1H-pyrrolo[3,2-c]pyridin-1-yl)methyl)cyclohexane-1-carbonyl)isoxazolidin-3-yl)-5-fluorobenzonitrile], the figures for the IC50 (in the test on U937 cells; in test [1]) were 11 nM and 46 nM, respectively.
